Tests used:
U87MG cells [1] = assay: In vitro Scratch Assay of cell migration; format: cell-based, human
Description: FIGS. 14A to 14D: Effect of NS-398 and FAT1 knockdown simultaneously on Cell Migration by In-vitro Scratch Assay. The in vitro Scratch Assay was performed at 72 hours after culturing cells as follows: At Day 0, 5,000 U87MG cells are plated per well of a 96 well plate. […] (C) Assay of cell migration by the Modified Boyden Chamber Assay under conditions of normoxia and hypoxia. (D) Quantitation of data from (C).
The Scratch Assay is performed at 72 hours after treatment. A scratch is made on the culture surface using a sterile 10 μl tip and cells were allowed to grow. Images were captured after every 3 hrs to monitor the closure of the wound in the culture surface for next 24 hrs.

[2] = system: colorectal and lung carcinoma cell lines; details: Elder 1997, Liu 1998; cited from earlier work
[3] = system: colon, esophageal and pancreatic carcinoma cell lines; details: Tsujii 1998, Zimmermann 1999, Molina 1999; cited from earlier work
COX-2 promoter = COX-2 promoter luciferase assay; format: cell-based, human; details: U87MG
Description: AP-1 and COX-2 Promoter Luciferase Assay: U87MG cells (40000 cells/well) were plated in 6-well plates in triplicate on day zero. On day 1, cells were transfected with siFAT1 and siControl. On day 2 cells were transiently transfected with 4×AP-1-luciferase reporter plasmids as described previously. Cells were transfected with 1 μg of AP-17× luciferase reporter plasmid, along with 50 ng of pRL-TK (Renilla luciferase) control plasmid using LIPOFECTAMINE2000 as the transfection reagent. After 48 hrs, the cells were lysed by 1× passive-lysis-buffer (Promega, Madison, Wis., USA) and assayed for luciferase activity as previously described. For COX-2 luciferase assay U87MG cells were transfected with siFAT1 and siControl on day 1 and after 4 hrs incubation were treated with 10 μM SR11302. On day2 cells were transiently transfected with COX-2 reporter plasmid and again treated with 10 μM SR11302. After 48 hrs, the cells were assayed for luciferase activity.

U87MG cells [4] = assay: Toxicity of SR11302 to cells; format: cell-based, human; details: 10 μM
Description: FIG. 11: Dose response curve of SR11302; U87MG cells were treated with increasing concentration of SR11302 from 0.1 μM to 10 μM.

SMILES | inhibition of cell migration (U87MG cells [1]; Scratch Assay at 72 hours after treatment) | effect on migration under hypoxic versus normoxic culture (U87MG cells [1]; hypoxic conditions) | migration ability of cells (U87MG cells [1]; scratch and modified Boyden chamber assays, normoxic or hypoxic conditions (FIG. 14)) | apoptosis [2] | proliferation [2] | growth of carcinoma cell lines [3] | dose response of COX-2 luciferase activity (COX-2 promoter; 0.1 μM to 10 μM) | decrease in COX-2 luciferase activity (COX-2 promoter; vs siControl+DMSO, SR11302 10 μM, 48 hrs) | toxicity to the cells (U87MG cells [4])
CS(=O)(=O)Nc1ccc([N+](=O)[O-])cc1OC1CCCCC1 [NS398] | about 70% | more pronounced | reduced | induce apoptosis | inhibit proliferation | growth-inhibitory effects | – | – | –
CC1=C(/C=C/C(=C/C=C/C(C)=C/C(=O)O)c2ccc(C)cc2)C(C)(C)CCC1 [SR11302] | – | – | – | – | – | – | dose dependent decrease | 5 fold | No toxicity

— US9556437B2, “FAT1 gene in cancer and inflammation” (DEPARTMENT OF BIOTECHNOLOGY (DBT), priority 2012, dated 2017)
